Reference: patent US20230181678A1, “NOVEL ANTIBACTERIAL PEPTIDE OR PEPTIDE ANALOG AND USE THEREOF” (CAMP THERAPEUTICS INC., priority 2020, published 2023)
* marks the point of attachment. Octanoyl = CCCCCCCC(=O)*

Legend:
[1] = system: A. baumannii ATCC 17978; assay: Neutropenic mouse thigh infection model; format: in vivo
Procedure: To induce neutropenia in 6-week-old female ICR (CD-1) mice weighing 23 g to 27 g (Orient Bio, Seongnam, Korea), the mice were treated (subcutaneously injected) with 150 mg/kg and 100 mg/kg of cyclophosphamide (CP), respectively, 5 days and 2 days before thigh infection. A. baumannii ATCC 17978 was harvested, washed, and suspended in sterile saline. The mice were anesthetized and infected with 1×10^5 CFU A. baumannii ATCC 17978 in the right and left thighs. […] The sensitizing peptide CMP1401 was administered by intraperitoneal injection 1, 3, 5, and 7 hours after infection. The mice were euthanized 9 hours after bacterial injection. Both thighs were harvested and suspended in sterile saline. The thighs were homogenized and serially diluted in sterile saline. The homogenized thighs were applied to tryptic soy agar plates, incubated overnight at 37° C., and the number of colonies was counted.

[2] = system: K.p. ATCC 700603; assay: MIC assay, sensitizing effect of peptide on rifampicin; format: cell-based, Klebsiella pneumoniae; details: FIG. 9C, peptide 4 ug/ml
Procedure: All MIC assay experiments were performed using the Clinical and Laboratory Standards Institute (CLSI) guidelines (Clinical & Laboratory Standards Institute: CLSI Guidelines, 2017). Bacterial cells cultured overnight were diluted to 0.05 McFarland standard using McFarland (KIT […] PLUS INSTRUMENT, Biomerieux) in Muller Hinton II Broth (cation-adjusted) (Difco). The cells were inoculated at 1.5×10^5 CFU per 200 μL solution of each well in a 96-well plate. The peptide and the antibiotic were prepared using 2-fold serially diluted concentrations. […] Incubation was performed at 37° C. for 18 hours, and then absorbance was measured at 600 nm using an EPOCH2 microplate reader (BioTek, Winooski, USA) to calculate a MIC value. The MIC value was defined as a concentration of the antibiotic or peptide at which bacterial growth was inhibited to a level of lower than 10% growth of the positive control. Fold reduction was calculated using the following expression.
ATCC 25922, A.b. ATCC 17978, K.p. ATCC 700603, and P.a. ATCC 27853, or CRE (E.c. NDM-1, K.p. NDM-1, or K.p. KPC) (FIGS. 9 and 10).

[3] = system: A. baumannii 801; assay: Immunosuppressed mouse pneumonia infection survival model; format: in vivo
Procedure: To induce neutropenia in 6-week-old female ICR (CD-1) mice weighing 23 g to 27 g (Orient Bio, Seongnam, Korea), the mice were treated (subcutaneously injected) with 150 mg/kg and 100 mg/kg of cyclophosphamide (CP), respectively, 4 days and 1 day before pneumonia infection. For a mouse model for survival analysis, the mice were infected intranasally with 1×10^8 CFU A. baumannii 801; and for a mouse model for colony number counting, the mice were infected intranasally with 1×10^6 CFU A. baumannii 801.
The sensitizing peptide CMP1401 of the present disclosure was administered by intraperitoneal injection 4 times daily for 2 days (25 mg/kg QID). Six mice were used per each group.

[4] = system: A. baumannii 801; assay: Immunosuppressed rat pneumonia infection model; format: in vivo; details: 5 mg/kg of rifampicin and 3 mg/kg or 6 mg/kg of CMP1401 (intravenous infusion 1 hour) vs 32 mg/kg colistin
Procedure: The results are illustrated in FIG. 16.
32 mg/kg of colistin is known as a clinical dose used for treatment of A. baumannii 801. Therefore, an effect observed in a case where 32 mg/kg of colistin was used alone may be a criterion for comparing effectiveness of co-administration of CMP1401 and an antibacterial agent in this example.

[5] = system: inner membrane of E. coli ATCC 25922; assay: Enzyme assay, inner membrane leakage (β-galactosidase release, ONPG); format: cell-based; details: 1.5 mM ONPG
Procedure: It was observed, through an enzyme assay, whether the sensitizing peptide destroyed the outer and inner membranes of Gram-negative bacteria. In the presence of the sensitizing peptide, it was observed whether in a case where 1.5 mM ONPG was used together therewith, β-galactosidase was released from E. coli ATCC 25922 for the inner membrane, and whether in a case where 200 μM CENTA was used together therewith, β-lactamase was released from E. coli NDM-1 for the outer membrane.
To determine leakage of the inner membrane, release of the cytoplasmic enzyme β-galactosidase was evaluated. The bacteria were diluted to OD600=1 and 1.5 mM ONPG (O-nitrophenyl-β-D-galactopyranoside) was added. Absorbance of a product of enzyme reaction was measured at 420 nm. The other procedures were carried out in the same manner as in the experiment for outer membrane destruction.

Substance: OctA-KKALKLAKKPLKLLK-NH2 (Octanoyl-KKALKLAKKPLKLLK-NH2) [CMP1401]
- decrease in number of colonies compared with rifampicin alone ([1]; CMP1401 100 mg/kg in the presence of 20 mg/kg of rifampicin): 14 fold
- number of colonies, peptide administered alone ([1]; CMP1401 alone at 50 mg/kg): No changes were observed in the number of colonies
- therapeutic efficacy of combination therapy with rifampicin ([1]; rifampicin and CMP1401): excellent therapeutic efficacy
- Decreased MIC value of rifampicin at peptide concentration of 4 ug/ml [2]: 7.8 ng/mL
- survival rate ([3]; 2.5 mg/kg of rifampicin and 25 mg/kg of CMP1401 (intraperitoneal, QID) co-administered): 50%
- survival rate higher than rifampicin alone ([3]; 2.5 mg/kg rifampicin + 25 mg/kg CMP1401 vs 2.5 mg/kg rifampicin alone): about 33.3%
- survival / antibacterial activity, peptide administered alone ([3]; CMP1401 administered alone): all mice died
- effect of co-administration with rifampicin compared with colistin [4]: comparable to that observed in a case where 32 mg/kg of colistin was administered
- destruction of inner membrane (β-galactosidase release) [5]: did not destroy these membranes
